Measurements: patent publication US20250041309A1 (ZHENAO JINYINHUA PHARMACEUTICAL, priority 2021, published 2025)
Where a name gives a salt, the structure may show the parent alone.

Legend:
[1] = system: MCAO rats; assay: Forelimb placement test in MCAO rats, injection of Aildenafil phosphate (Example 24); assay type: in vivo; conditions: x ± sD, n = 7
Description: (§1) • ? Animal selection: healthy SD rats were used as experimental animals. In order to eliminate the impact of individual animal variations on the results, 10 rats were used in each group. […] After 2 hours of cerebral ischemia-reperfusion, the drug was immediately injected into the tail vein for consecutive 7 days.
(§2) On the day of the experiment, the rat was anesthetized with isoflurane gas and fixed in a supine position. The skin was cut along the midline of the neck to expose the right arteriae carotis communis. The nerves and fascia around the blood vessels from the common carotid artery bifurcation to the base of the skull were carefully removed, and the external and internal carotid arteries were separated sequentially. A MCAO suture (250-280 g) was inserted from the free end of the external carotid artery, and the nylon suture was introduced into the internal carotid artery from the distal end of the external carotid artery. It was inserted into the middle cerebral artery in the Willis ring to effectively block the middle cerebral artery. The length of the inserted suture was 18-20 mm away from the bifurcation of the common carotid artery. Then the free end of the external carotid artery was ligated along with intracavity suture to prevent bleeding. The subcutaneous fascia and skin were sutured layer by layer, and penicillin was locally added dropwise to prevent infection. The Sham group only isolated the internal carotid artery. 2 hours after the start of MCAO, the suture was carefully removed from the lumen of the internal carotid artery to allow for reperfusion of the internal carotid artery. Animals were kept in cages. • ? Y Grouping and administration
(§3) The rats successfully modeled with a neurological function score of 8-12 were randomly divided into four groups based on the score: model control group, low-dose 2.5 mg/kg group of test drug, medium dose 5 mg/kg group of test drug, and high-dose 10 mg/kg group of test drug, with 7 rats in each group. […] Immediately after cerebral ischemia-reperfusion for 2 hours, the drug was administered via tail vein injection for consecutive 7 days. The endpoint of the experiment is 14 days after the first administration. Please see Table 7 for details.
(§4) Balance beam and forelimb placement tests were performed after 7 and 14 days administration, respectively.

[2] = system: MCAO rats; assay: Cerebral infarction range (TTC) in MCAO rats, injection of Aildenafil phosphate (Example 24); assay type: in vivo, SD rats; conditions: 14 days; for Improvement rate % of cerebral infarction range: versus model control group; for Infarct size (%): x ± sD, n = 7
Description: as §1, §2, §3
After 14 days of medication, rats were anesthetized with isoflurane gas to collect blood and euthanized by cervical vertebrae dislocation. The brain tissue was taken and placed in a −20° C. freezer for freezing, and was sliced from front to back, each slice has a thickness of 2 mm. Brain tissue slices were incubated in a 2% red tetrazolium (TTC) solution at 37° C. for 5 minutes. […] Image J software was used to measure the area of cerebral infarction and the percentage of infarct area to the total brain area was calculated.

[3] = Saturation solubility of Aildenafil salts in water at room temperature; assay type: physicochemical
[4] = Sterilization stability test of aqueous solutions (121° C., 30 minutes, HPLC relevant substances); conditions: 0.5 mg/ml aqueous solution; for Conclusion (sterilization stability) / Relevant substances after sterilization: sterilized at 121° C. for 30 minutes
Description: They were sterilized in a 121° C. sterilizer for 30 minutes, and sampled before and after sterilization. The relevant substances were measured according to the following method:
Relevant substances: taking the samples and dissolving it in the mobile phase to prepare a solution containing 0.5 mg per 1 ml, which was used as the test solution; using octadecylsilane bonded silica gel as the filler, phosphate buffer (800 ml of water, 7 ml of triethylamine added, pH adjusted to 3.0 with phosphoric acid, diluted to 1000 ml with water)-methanol acetonitrile (58:25:17) as the mobile phase, with a detection wavelength of 290 nm.

[5] = pH measurement of Aildenafil salts dissolved in water; assay type: physicochemical; conditions: for 2 mg/ml pH value: 2 mg/ml in water; for 10 mg/ml pH value: 10 mg/ml in water
[6] = system: MCAO rats; assay: Balance beam test in MCAO rats, injection of Aildenafil phosphate (Example 24); assay type: in vivo; conditions: x ± sD, n = 7
Description: as §1, §2, §3, §4

[7] = Physical and chemical properties of the experimental drugs (Example 23)
[8] = system: MCAO rats; assay: Cerebral infarction range (TTC) in MCAO rats, oral administration (Example 23); assay type: in vivo, SD rats; conditions: gavage 8 mg/kg*2, after 14 days; for Improvement rate % of cerebral infarction range: versus model control group; for Total cerebral infarction %: x ± s, n = 20
Description: (§5) Administration route: gavage administration;
(§6) Dosage: 8 mg/kg body weight, twice a day;
(§7) Administration time: gavage administration twice a day in the morning and evening (administered immediately after modeling).
(§8) A rat model of middle cerebral artery ischemia/reperfusion (MCAO/R) was created using suture-occluded method.
(§9) The successfully modeled rats were randomly divided into 4 groups based on their scores, with an average of 20 rats in each group.
At the end of the experiment, the brain tissue of the rats was collected by bloodletting and frozen in a −20° C. freezer, and then is sliced into a thickness of 2 mm per slice. The brain tissue slices were placed in a 2% red tetrazolium (TTC) solution and incubated at 37° C. for 5 minutes. The infarcted tissue appeared white, while the non-infarcted tissue appeared red. Image J software was used to measure the area of cerebral infarction and the percentage of infarct area to the total brain area was calculated.

[9] = system: MCAO rats; assay: Neurological function (behavioral) score in MCAO rats, oral administration (Example 23); assay type: in vivo, SD rats; conditions: gavage 8 mg/kg twice a day; after 3, 7 and 14 days administration
Description: as §5, §6, §7, §8
After 2 hours of embolization, then reperfusion, according to the scoring criteria in the attached table, the degree of neurological damage in the animals was scored using a blind method. Those with significant neurological deficits (>8 points) were considered successful in modeling.
as §9
Neurological function score: evaluation was conducted before treatment, 3 days, 7 days, and 14 days after treatment.

[10] = system: ischemic stroke model rats; assay: Neurological function (behavioral) score, ischemic stroke model rats, intravenous administration (Example 22); assay type: in vivo, SD rats; design: scale not given here; conditions: 10 mg/kg iv qd 7 d, x ± s, n = 10
From the text: (§10) On the day of the experiment, the rat was anesthetized with isoflurane gas and placed in a supine position for fixation. The skin was cut along the midline of the neck to expose the right common carotid artery. The nerves and fascia around the blood vessels from the common carotid artery bifurcation to the base of the skull were carefully removed, and the external and internal carotid arteries were separated sequentially. The MCAO suture was inserted from the free end of the external carotid artery, and the nylon suture was introduced into the internal carotid artery from the distal end of the external carotid artery. It was inserted into the Willis ring of the middle cerebral artery to effectively block the middle cerebral artery. The length of the inserted suture was 18-20 mm away from the bifurcation of the common carotid artery. Then the free end of the external carotid artery was ligated along with the endovascular suture to prevent bleeding. […] Animals were kept in cages. After 2 hours of embolization, then reperfusion, according to the scoring criteria in the attached table, the degree of neurological damage in the animals was scored using a blind method. Those with significant neurological deficits (>8 points) were considered successful in modeling. • ? Grouping and administration The animals successfully modeled were randomly divided into three groups based on their scores, namely the model control group, compound 1 AD group ([…] citrate group) 10 mg/kg, and compound 2 XD group (Sildenafil citrate group) 10 mg/kg, with 10 animals in each group. […] The endpoint of the experiment was 14 days after administration, and the dosage is detailed in the table below. This experiment was administered intravenously with a dosage of 10 mg/kg and a volume of 5 mL/kg, once per day for consecutive 7 days. Score before treatment, 3 days after treatment, 7 days after treatment, and 14 days after treatment.

[11] = system: ischemic stroke model rats; assay: Cerebral infarction range (TTC), ischemic stroke model rats, intravenous administration (Example 22); assay type: in vivo, SD rats; conditions: 10 mg/kg iv qd 7 d
From the text: as §10, with “cages.” for “cages. After 2 hours of embolization, then reperfusion, according to the scoring criteria in the attached table, the degree of neurological damage in the animals was scored using a blind method. Those with significant neurological deficits (>8 points) were considered successful in modeling. • ? Grouping and administration”, “At the end of the experiment, the brain tissue of the rats was collected by bloodletting” for “Score before treatment, 3 days after treatment, 7 days after treatment,”, “frozen in a -20° C. freezer, then are sliced with a thickness of 2 mm per slice. The brain tissue slices were placed in a 2% red tetrazolium (TTC) solution and incubated at 37° C. for 5 minutes. The infarcted tissue appeared white, while the non-infarcted tissue appeared red.” for “14 days after treatment.”

[12] = 5 mg/kg iv qd 7 d (medium dose)

## CCCc1nn(C)c2c(=O)[nH]c(-c3cc(S(=O)(=O)N4C[C@@H](C)N[C@@H](C)C4)ccc3OCC)nc12 [Aildenafil phosphate]
[1]; 5 mg/kg iv qd 7 d
  Forelimb left (%), 7 days after medication: 18.57 ± 18.64%
  Forelimb left (%), 14 days after medication: 37.14 ± 30.39 %
  Forelimb right (%), 7 days after medication: 100 ± 0%
  Forelimb right (%), 14 days after medication: 100 ± 0%
[1]; 10 mg/kg iv qd 7 d
  Forelimb left (%), 7 days after medication: 14.29 ± 18.13%
  Forelimb left (%), 14 days after medication: 38.57 ± 28.54 %
  Forelimb right (%), 7 days after medication: 100 ± 0%
  Forelimb right (%), 14 days after medication: 100 ± 0%
[2]; 5 mg/kg iv qd 7 d
  Improvement rate % of cerebral infarction range: 46.5%
  Infarct size (%): 13.13 ± 4.12 %
[2]; 10 mg/kg iv qd 7 d
  Improvement rate % of cerebral infarction range: 43.4%
  Infarct size (%): 13.90 ± 4.70 %
[3]
  time to dissolve to be clear in water by hand shaking: 15 s
[4]
  Relevant substances before sterilization: None
  Conclusion (sterilization stability): No changes, stable
  Relevant substances after sterilization: no impurities were found and no impurities are produced and None
[5]
  2 mg/ml pH value: 5.47
  10 mg/ml pH value: 5.38
[6]; [12]
  balance beam, 7 days after medication: 2.14 ± 0.9 min
  balance beam, 14 days after medication: 4.29 ± 1.38 min
[6]; 10 mg/kg iv qd 7 d (high dose)
  balance beam, 7 days after medication: 2.71 ± 1.25 min
  balance beam, 14 days after medication: 4.29 ± 1.60 min

## Yukinafil citrate
[7]; DMF or DMSO
  solubility in DMF or DMSO (in words): soluble
[7]; water
  solubility in water (in words): soluble
[8]
  Improvement rate % of cerebral infarction range: 13.1%
  Total cerebral infarction %: 21.2 ± 6.3%
[9]
  behavioral scores compared with the model control group: trend of improvement

## CN1CC(=O)N2[C@H](c3ccc4c(c3)OCO4)c3[nH]c4ccccc4c3C[C@@H]2C1=O [Tadalafil]
[8]
  Improvement rate % of cerebral infarction range: 14.2%
  Total cerebral infarction %: 21.3 ± 6.5%

## CCCc1nn(C)c2c(=O)[nH]c(-c3cc(S(=O)(=O)N4C[C@@H](C)N[C@@H](C)C4)ccc3OCC)nc12 [Aildenafil DL-tartrate]
[5]
  2 mg/ml pH value: 3.90
  10 mg/ml pH value: 3.57

## CCCc1nn(C)c2c(=O)[nH]c(-c3cc(S(=O)(=O)N4C[C@@H](C)N[C@@H](C)C4)ccc3OCC)nc12.O=C(O)C(O)C(O)C(=O)O [Aildenafil L-tartrate, L-tartrate (1:1) of 1-[4-ethoxy-3-[5-(6,7-dihydro-1-methyl-7-oxy-3-n-propyl-1H-pyrazolo[4,3-d]pyrimidine)]benzenesulfonyl]-cis-3,5-dimethylpiperazine]
[3]
  time to dissolve to be clear in water by hand shaking: 15 s
[3]; thermodynamic from solid, room temperature, read-out: Saturated Solubility in water at room temperature
  solubility: ~50 mg/mL
[4]
  Relevant substances before sterilization: None
  Conclusion (sterilization stability): No changes, stable
  Relevant substances after sterilization: no impurities were found and None
[4]; listed as L-tartrate
  Relevant substances after sterilization: no impurities are produced
[5]
  2 mg/ml pH value: 3.59
  10 mg/ml pH value: 3.56

## CCCc1nn(C)c2c(=O)[nH]c(-c3cc(S(=O)(=O)N4C[C@@H](C)N[C@@H](C)C4)ccc3OCC)nc12 [Aildenafil D-tartrate]
[5]; listed as D-tartrate
  2 mg/ml pH value: 3.84
  10 mg/ml pH value: 3.58

## CCCc1nn(C)c2c(=O)[nH]c(-c3cc(S(=O)(=O)N4C[C@@H](C)N[C@@H](C)C4)ccc3OCC)nc12 [Aildenafil citrate]
[10]; 3 days after medication
  behavioral score, 3 days after medication: 6.9 ± 1.5
[10]; 7 days after medication
  behavioral score, 7 days after medication: 5.5 ± 1.1
[10]; 14 days after medication
  behavioral score, 14 days after medication: 4.3 ± 1.3
[10]; before medication
  behavioral score, Before medication: 9.7 ± 0.5
[4]
  Relevant substances before sterilization: None
  Conclusion (sterilization stability): No changes, stable
  Relevant substances after sterilization: no impurities were found and None
[5]
  2 mg/ml pH value: 4.11
  10 mg/ml pH value: Insoluble
[11]; 14 days after administration, x ± s, n = 10
  Total cerebral infarction %: 17.6 ± 7.7 %
[11]; 14 days, versus model control group
  Improvement rate % of cerebral infarction range: 29.6%
